Here are results for 2 compounds from patent publication US20260297031A1, “HYDROXYLAMINE-BASED BCR-ABL1 INHIBITORS FOR TREATMENT OF CANCER” (University of Georgia Research Foundation, Inc., priority 2023, published 2026).

Data set [1] is described as follows: Aqueous solubility. The conditions noted are these: phosphate buffer, pH 7.4, aqueous buffer. The protocol:
Solubility Determinations (Independently Performed by Pharmaron Inc., Ninqbo, CN)
Test compounds and control compounds (progesterone or diclofenac) were initially prepared as 10 mM DMSO stock solutions. […] After such time, plugs and stir sticks were removed and the samples from the solubility sample plate were transferred into the filter plate. All the samples were then filtered and 5 μL of filtrate was taken and added along with 5 μL of DMSO and 490 μL of a 1:1 (v/v) mixture of H2O and acetonitrile containing internal standard (100 nM alprazolam, 200 nM Caffeine and 100 nM tolbutamide) to the plate yielding a final concentration of 3 μM. The samples were then analyzed by LC-MS and diluted according to the peak shape with ultrapure water.
Filtrate was analyzed and quantified against a standard of known concentration using LC coupled with MS peak identification and quantitation. Solubility values of test compounds and progesterone were calculated as follows and are presented as the mean of n=2 replicates: […]

Data set [2] in a line: Plasma protein binding by equilibrium dialysis, human plasma. It is filed as in vitro ADME. The protocol:
(§1) Plasma Protein Binding by Equilibrium Dialysis (Independently Performed by Pharmaron Inc., Ninqbo, CN)
(§2) Initially, 1 mM solutions of test compounds and the control compound (Ketoconzaole) were prepared in DMSO. After this, dialysis membranes were soaked in ultrapure water for 60 min to separate strips, followed by 20% aq. ethanol for 20 min, and finally in a dialysis buffer for 20 min. […] After this, 597 μL of blank plasma solution followed by 3 μL of the working solutions of either test compounds or control compound were added to a new plastic plate or separate plastic tube and the solutions were vortexed at 1,000 rpm for 2 min. Immediately after this, 50 μL of spiked plasma solution suspension was transferred to a 96-well plate to act as T=0 control. The remaining samples were treated in the same manner, whereby all remaining spiked plasma solutions were added to the incubator for the duration of the study.
(§3) Cells were then loaded with 120 μL of the plasma samples and dialyzed against an equal volume of dialysis buffer (PBS). […] At the end of incubation, the lid was removed and 50 μL of post-dialysis samples were removed from both buffer and plasma solution chambers into a separate 96-well plate for analysis. The plasma solutions (50 μL) were then added to the buffer samples along with an equal volume of PBS (50 μL) to the collected plasma solution samples. The plate was shaken at 1,000 rpm for 2 min and 400 μL of acetonitrile containing an appropriate internal standard was added to precipitate protein and release compound. The samples were then vortexed at 1,000 rpm for an additional 10 min followed by centrifugation at 3,220 g for 30 min. Supernatant (250 μL) was then added to a new 96-well plate and centrifuged again at 3,220 g for 30 min and 100 μL of this supernatant was then added to a new 96-well plate for analysis. The samples were analyzed by LC-MS/MS and 100 μL of distilled water was added to each sample prior to analysis.
(§4) Concentrations of test compounds and control compound in buffer and plasma solution chambers was determined and percentages of test compounds and control compound bound using the following equations (mean of n=2 replicates): […]

Data set [3] is described as follows: Plasma protein binding by equilibrium dialysis, rat plasma. It is filed as in vitro ADME. Here is the method:
as §1, §2
as §3, with “Supernatant (250 μL) was then added to a new 96-well plate and centrifuged again at 3,220 g for 30 min and 100 μL of this supernatant was then added to a new 96-well plate for analysis.” left out
as §4
A general note: In equilibrium dialysis only unbound substance equilibrates across the membrane.

The nature of data set [4]: Metabolic stability in human liver microsomes. The class given is in vitro ADME. Conditions: human. Here is the method:
(§5) Metabolic Stability in Liver Microsomes (Independently Performed by Pharmaron Inc., Ninqbo, CN)
(§6) This experiment was carried out under two separate set of conditions: i) with Cofactors (NADPH), which consisted of adding 25 μL of 10 mM NADPH to the incubations, giving a final NADPH concentration of 1 mM, and ii) without Cofactors (NADPH), which consisted of adding 25 μL of 100 mM phosphate buffer to the incubations. Under both sets of conditions, the final concentration of microsomes were 0.5 mg/mL. […] Samples were then centrifuged at 3,220 g for 40 min and aliquots of 100 μL of the supernatant were mixed with 100 μL of ultra-pure H2O and analyzed by LC-MS/MS.
(§7) Peak areas were determined from extracted ion chromatograms. The slope value, k, was determined by linear regression of the natural logarithm of the remaining percentage of the parent drug vs incubation time curve.
(Liver microsomes are a subcellular fraction often used to study metabolism.)

Data set [5] in a line: Metabolic stability in rat liver microsomes. The class given is in vitro ADME. Conditions: rat. Here is the method: as §5, §6, §7
Data set [6] can be described thus: Metabolic stability in human hepatocytes. The protocol:
Metabolic Stability in Hepatocytes (Independently Performed by Pharmaron Inc., Ninqbo, CN)
After thawing was complete, hepatocytes were transferred into a 50 mL conical tube containing thawing medium and the tube was then placed into a centrifuge and spun at 100 g for 10 min. […] Using AO/PI staining, cells were counted to determine the viable cell density. […] Subsequently, 2 μL of the 100 μM test compounds or control compound solutions was transferred into the respective wells of the 96-well non-coated plate to start the reaction. […] Aliquots of 100 μL of the supernatant were then diluted by 100 μL of ultra-pure water, and the mixture was analyzed by LC-MS/MS.
All calculations were carried out using Microsoft Excel. Peak areas were determined from extracted ion chromatograms. The in-vitro half-life (t1/2) of parent compound was determined by regression of the percent parent disappearance vs. time curve.

Data set [7] is described as follows: Metabolic stability in rat hepatocytes. It is filed as in vitro ADME. The conditions noted are these: rat. The protocol:
All calculations were carried out using Microsoft Excel. Peak areas were determined from extracted ion chromatograms.

Data set [8] deals with Molt-4 cells. Briefly: In vitro CTG antiproliferative assay, Molt-4. It is filed as cell-based. The conditions noted are these: for IC50: Homo sapiens, Molt-4 (BCR-ABL1−), 72 h. Here is the method:
(§8) In Vitro CTG Assay (Independently Performed By: Crown Bioscience, Taicanq, CN)
(§9) Cells listed in the table above were initially harvested during logarithmic growth period followed by re-suspension and counting using a Vi cell counter (cell viability was measured by trypan blue exclusion assay). Cells were then diluted and 90 μL cell suspensions were added to 96-well plates. Plates were then incubated overnight in a humidified incubator at 37° C. with 5% CO2. To(Time 0) plate was then taken by 10 μL of culture medium being added to each well followed by 50 μL CellTiter-Glo® Reagent being added. The contents were then mixed for 2 min on an orbital shake to facilitate cell lysis. Next, the plate was incubated at room temperature for 10 min to stabilize luminescent signal. Blackseal black sticker was placed to the bottom of each plate and the luminescence was recorded using EnVision multi label reader. Test compounds and 10 μL of each 10× compound working solutions was added according to the plate inoculation map. Plates were then placed back into the incubator and after 72 h, 50 μL CellTiter-Glo® was added to each well. Contents were then mixed for 2 min on an orbital shaker to facilitate cell lysis. The plate then was incubated at room temperature for 10 min to stabilize luminescent signal. Blackseal black sticker was placed to the bottom of each plate and the luminescence recorded using EnVision multi label reader.
Relative IC50 was calculated with a dose-response curve fitted using nonlinear regression model with a sigmoidal dose response on GraphPad Prism version 9.5.1. […] The formula for calculating survival rate was (n=3 replicates): […]

Data set [9] deals with K562 cells. Briefly: Cell viability assay, K562. The class given is cell-based.
Data set [10] deals with P-glycoprotein (P-gp) and/or breast cancer resistance protein (BCRP). The conditions noted are these: cited from earlier work.
Data set [11] can be described thus: LogD7.4 by shake flask method. The conditions noted are these: octanol/phosphate buffer, pH 7.4.
Experimental: Test compounds and control compound (Nicardipine) were initially prepared as 10 mM solutions in DMSO and 5 μL of each sample solution was placed into one 96-well plate. […] From the octanol buffer phase, 5 μL was transferred to a new 96-well plate followed by addition of 495 μL of a 1:1 (v/v) mixture of H2O and acetonitrile to yield 100-fold diluted samples. […] Diluted samples were then vortexed for 5 min at 1,000 rpm. 50 μL of buffer samples were then transferred to a new 96-well plate, followed by addition of 450 μL of a 1:1 (v/v) mixture of H2O and acetonitrile mixture containing internal standard yielding 10-fold diluted buffer samples. Samples were vortexed for 5 min at 1,000 rpm and then all samples underwent analysis by LC-MS/MS.
Data set [12] addresses T1, BCR-ABL1 T315I (Homo sapiens, UniProt P00519, T315I).
T1 construct: BCR (fusion partner, as the printed name BCR-ABL1 says)
Briefly: KinaseProfiler radiometric kinase assay, BCR-ABL1 T315I. Conditions: gatekeeper mutation. The class given is biochemical.

The target in data set [13] is mutant BCR-ABL1. As to the kind of experiment: KinaseProfiler radiometric kinase assay, mutant BCR-ABL1 kinases as a group. The class given is biochemical, human. Conditions: read-out: IC50 against (imatinib resistant / relevant) mutant BCR-ABL1 kinases; group of mutants. The source says:
Biochemical Human RTK Kinase Enzymatic Radiometric Assay, KinaseProfiler (Independently Performed by Eurofins Cerep SA, FR)

The test system of data set [14] is KU812 cells. Briefly: In vitro CTG antiproliferative assay, KU812. The class given is cell-based. The conditions noted are these: KU812, 72 h.
Experimental: (§10) Cells listed in the table above were initially harvested during logarithmic growth period followed by re-suspension and counting using a Vi cell counter (cell viability was measured by trypan blue exclusion assay). Cells were then diluted and 90 μL cell suspensions were added to 96-well plates. […] To(Time 0) plate was then taken by 10 μL of culture medium being added to each well followed by 50 μL CellTiter-Glo® Reagent being added. The contents were then mixed for 2 min on an orbital shake to facilitate cell lysis. Next, the plate was incubated at room temperature for 10 min to stabilize luminescent signal. Blackseal black sticker was placed to the bottom of each plate and the luminescence was recorded using EnVision multi label reader. Test compounds and 10 μL of each 10× compound working solutions was added according to the plate inoculation map. […] Contents were then mixed for 2 min on an orbital shaker to facilitate cell lysis. The plate then was incubated at room temperature for 10 min to stabilize luminescent signal. Blackseal black sticker was placed to the bottom of each plate and the luminescence recorded using EnVision multi label reader.
In data set [15] the test system is MEG-01 cells. As to the kind of experiment: In vitro CTG antiproliferative assay, MEG-01. It is filed as cell-based. The conditions noted are these: MEG-01, 72 h. Here is the method:
as §8
as §9, with “Plates were then placed back into the incubator and after 72 h, 50 μL CellTiter-Glo® was added to each well. Contents were then mixed for 2 min on an orbital shaker to facilitate cell lysis. The plate then was incubated at room temperature for 10 min to stabilize luminescent signal.” left out
Relative IC50 was calculated with a dose-response curve fitted using nonlinear regression model with a sigmoidal dose response on GraphPad Prism version 9.5.1. […]

The subject of data set [16] is SUP-B15 cells. Briefly: In vitro CTG antiproliferative assay, SUP-B15. It is filed as cell-based. Conditions: SUP-B15, 72 h.
Experimental: as §10
Data set [17] deals with CHO-K1 cells. Conditions: +/− S9; 0.2-500 μM.
Text: High content analysis and fluorescent image analysis were used to detect micronuclei. Cyclophosphamide was the positive control in the presence of metabolic activation by rat liver S9 and mitomycin C was the positive control without metabolic activation by rat liver S9.

In brackets after ≈: the same amount, converted by molar mass. Entries after “also recorded” stand apart in the source; their conditions may differ. Bounds are passed on as bounds.

Turning to `COc1cc(Nc2c(C#N)cnc3cc(OCCCN4CCN(C)CC4)c(OC)cc23)c(Cl)cc1Cl` [Bosutinib, bosutinib, reference compound], the solubility (kinetic) – broadly, the concentration staying in solution when a stock, usually in DMSO, is diluted into the medium – at 2 h in data set [1] turned out to be 14 µM (≈ 7.43 µg/mL). For the same compound, the “plasma protein binding, in words” value in data set [2] (human) and in data set [3] was “comparable unbound plasma protein fraction” each time. Besides, the “% Bound” value in [2] (human plasma, 360 min, 5 µM) was 95.47%. Moreover, in data set [2] (human plasma, 360 min, 5 µM), the “% Unbound” value turned out to be 4.52%. The “fu, plasma %” value stood at 4.5% in data set [2] (human, 5 μM, 360 min) and 7.2% in data set [3] (5 μM, 360 min). The “stability in liver microsomes, in words” value in data set [4] and in data set [5] was “significant degradation” throughout. Further, the “stability in hepatocytes, in words” value in data set [6] and in data set [7] was “comparably enhanced stability” in each case. Further, in data set [6] (hepatocytes), the amount remaining – broadly, what is left of the initial amount, in per cent – at 0.5 min amounted to 100%. The share remaining at 0.5 h in [6] (hepatocytes) came out at 79.3%. The amount remaining at 1 h in data set [6] (hepatocytes) was 54%. The compound further registered a share remaining at 2 h in data set [6] (hepatocytes) of 20.7%. The compound also had an IC50 in data set [8] of over 2 µM. The “antiproliferative activity, in words” value in [9] is recorded as “picomolar activity”. Further, the “efflux transporter substrate (background)” value in [10] is “P-gp substrates; also recorded: potent substrates for efflux transporters”. Further, the logD (usually lipophilicity at a set pH, counting ionised and neutral species) in [11] turned out to be 3.1.
Regarding `COc1cc(Nc2c(C#N)cnc3cc(OCCON4CCN(C)CC4)c(OC)cc23)c(Cl)cc1Cl` [Compound 7, 4-((2,4-dichloro-5-methoxyphenyl)amino)-6-methoxy-7-(2-((4-methylpiperazin-1-yl)oxy)ethoxy)quinoline-3-carbonitrile], the “activity against BCR-ABL1 T315I, in words” value in data set [12] is “slightly reduced activity”. Also, the IC50 in [13] was under 0.001 µM; in data set [8], over 2 µM. The “antiproliferative activity, in words” value was “potent antiproliferative activity; also recorded: excellent antiproliferative activity” in [14]; “potent antiproliferative activity; also recorded: excellent antiproliferative activity” in data set [15]; “reduced activity” in data set [16]; “minimal activity” in data set [8] (Molt-4, 72 h). The Micronucleus result in data set [17] is “neither mutagenic nor genotoxic; also recorded: Negative”.
